In patent US7148194B2, “Method to increase fibronectin” (Kimberly-Clark Worldwide, Inc., priority 2002, dated 2006):

What was measured:
[1] = system: normal human epidermal keratinocytes; assay: keratinocyte proliferation, Cell Titer 96, OD 490 nm; type: cell-based; conditions: 48 hours
Protocol: The proliferative response of these human skin keratinocytes to the 19mer peptide was measured in a 96-well assay system using keratinocyte basal medium (KBM, Clonetics, catalog number CC-3103) as a control. […] The plates were incubated for 24 hours at 37° C. in a humidified 5% CO2 atmosphere. […] In addition, 100 μl of vehicle KBM was added to 10 wells as control. The plate was incubated for 48 hours at 37° C. in a humidified, 5% CO2 atmosphere. After incubation, 20 μl of Cell Titer 96 Aqueous One Solution was added to all wells. The plate was swirled gently and placed back in the incubator for 3 hours. The spectrophotometric absorbance of each well was read at 490 nm. Results were analyzed statistically using one-way ANOVA.

[2] = system: fibronectin in human skin fibroblast cell line; assay: fibronectin in human skin fibroblasts, EIA; type: cell-based; conditions: for Mean (fibronectin EIA, absorbance at 450 nm) / Median (fibronectin EIA, absorbance at 450 nm): 48 hours, n=2
Protocol: The fibroblast cells were first grown in a 96-well assay system using DMEM with 10% fetal bovine serum (FBS), both purchased from Sigma Chemical Co, St. Louis, Mo. […] Serum-free DMEM was used as a control. Cells were seeded into a 96 well plate at a concentration of 9×10^3 cells in 100 μl of DMEM containing 10% fetal bovine serum (FBS, Sigma Chemical Co., St. Louis, Mo.). The plate was incubated for 48 hours at 37° C. in a humidified 5% CO2 atmosphere. After incubation, the medium was aspirated and the wells were rinsed twice with 100 μl of serum-free DMEM. […] In addition, 100 μl of vehicle (serum-free DMEM) was added to 2 wells as a control. The plate was incubated for 48 hours at 37° C. in a humidified, 5% CO2 atmosphere.
The assay was performed using the recommended 100 μl of supernatant from each well of the 96-well plate. Standard buffer and stop solutions were freshly prepared before running the assay. A pre-antibody coated 96 well plate (provided with the kit) was used to transfer the test samples and the control. The plate was mixed, sealed, and incubated for 1 hour at 37° C. All the wells were washed three times (300ul) with washing buffer after removing sample solutions. 100ul of antibody-peroxidase conjugate solution was added into the wells. The plate was mixed, sealed, and incubated for one hour at 37° C. Solutions were removed and the wells were washed 3 times with washing buffer. All the wells were completely emptied at the end of washing from any liquid. 100 μl of substrate solution (hydrogen peroxide and tetramethylbenzidine in a buffered solution) was added to each well, and the plate was incubated at room temperature for 15 minutes. 100 μl of stop solution (freshly prepared 1N H2SO4) was added to each well in the same order as substrate. The plate was gently mixed and absorbance was read at 450 nm. Statistical analyses of data were performed using a one-way ANOVA.

MMP-2 = molecular target: T1, MMP-2 (Homo sapiens, UniProt P08253); assay: isothermal titration calorimetry with MMP-2; type: binding; conditions: ITC, 10 mM NaCl at 25° C.
T1 sequence (P08253 110-660): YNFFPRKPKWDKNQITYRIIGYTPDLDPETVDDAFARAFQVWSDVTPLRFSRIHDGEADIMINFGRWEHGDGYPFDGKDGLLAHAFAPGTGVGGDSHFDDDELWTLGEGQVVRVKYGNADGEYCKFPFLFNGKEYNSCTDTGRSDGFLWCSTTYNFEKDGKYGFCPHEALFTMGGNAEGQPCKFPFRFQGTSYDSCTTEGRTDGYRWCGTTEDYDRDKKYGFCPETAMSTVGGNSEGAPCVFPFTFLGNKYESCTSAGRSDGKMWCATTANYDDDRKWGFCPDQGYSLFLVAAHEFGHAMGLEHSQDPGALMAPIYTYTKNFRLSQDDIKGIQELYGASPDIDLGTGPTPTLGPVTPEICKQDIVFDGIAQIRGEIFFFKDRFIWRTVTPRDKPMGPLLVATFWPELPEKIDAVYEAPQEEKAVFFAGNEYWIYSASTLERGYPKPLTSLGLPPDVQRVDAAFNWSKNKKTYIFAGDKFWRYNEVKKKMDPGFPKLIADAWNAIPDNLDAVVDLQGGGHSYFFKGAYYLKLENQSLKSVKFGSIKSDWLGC

MMP-9 = molecular target: T2, MMP-9 (Homo sapiens, UniProt P14780); assay: isothermal titration calorimetry with MMP-9; type: binding; conditions: ITC, 20 mM NaCl
T2 construct: Active MMP-9 enzyme was purchased from Calbiochem; purchased Calbiochem
T2 sequence (P14780 107-707 limits assumed): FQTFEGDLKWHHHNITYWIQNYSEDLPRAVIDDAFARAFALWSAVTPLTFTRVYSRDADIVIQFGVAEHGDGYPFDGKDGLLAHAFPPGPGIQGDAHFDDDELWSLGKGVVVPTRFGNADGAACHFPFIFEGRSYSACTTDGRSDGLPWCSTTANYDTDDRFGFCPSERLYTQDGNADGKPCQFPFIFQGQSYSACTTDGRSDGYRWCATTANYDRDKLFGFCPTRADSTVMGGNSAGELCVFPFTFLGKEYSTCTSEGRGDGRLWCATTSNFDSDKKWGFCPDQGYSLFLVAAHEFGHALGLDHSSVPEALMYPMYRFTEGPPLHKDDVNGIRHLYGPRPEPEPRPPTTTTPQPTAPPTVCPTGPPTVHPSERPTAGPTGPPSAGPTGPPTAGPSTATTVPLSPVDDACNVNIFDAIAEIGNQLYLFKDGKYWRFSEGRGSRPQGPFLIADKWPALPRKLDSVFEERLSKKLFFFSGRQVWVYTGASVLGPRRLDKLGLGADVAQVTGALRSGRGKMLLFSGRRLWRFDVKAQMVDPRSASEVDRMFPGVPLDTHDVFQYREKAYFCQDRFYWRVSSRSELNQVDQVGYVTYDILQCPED
Protocol: Isothermal titration calorimetry (ITC) was performed with a VP-ITC instrument from MicroCal, Inc. Titrations were carried out by injecting 5 μL of an inhibitor peptide solution (at concentration ranges from 0.5 mM to 2.0 mM) into the 1.4 mL stirred reaction cell. MMP-9 ranged in concentration from 50 to 80 μM in the cell. Both the inhibitor and the enzyme were in 20 mM sodium cacodylate (pH 5.5–7.0), 40 mM NaCl, or 20 mM Tris-HCl (pH 7.0–7.5), 40 mM NaCl. Titrations were conducted between 20° C. and 40° C. Typical experimental conditions for the titrations were a 10 second injection period followed by a 240 second delay between injections for a total of 40 injections. Blank titrations of inhibitor peptide into buffer were performed in order to correct for heats of dilution and mixing.
The independent set of multiple binding sites is the most common model for binding experiment evaluations. The analytical solution for the total heat is determined by (Freire et al., 1990):
[formula] where Q is the total heat, V is the cell volume, ΔH is the enthalpy, M is the macromolecule concentration (the binding partner in the cell), n is the binding stoichiometry, L is the ligand concentration (the binding partner in the syringe), and K is the association constant. Data were fit to this model using Origin version 5 (MicroCal, Inc.). Surface Plasmon Resonance
The peptide was dissolved in 20 mM cacodylate (pH 6.8), 20 mM NaCl at a final concentration of 1 mM. MMP-9 was dialyzed into the same buffer at a final concentration of 20 μM. A series of standard injections were performed as described above.

[3] = MMP-2, 20 mM cacodylate (pH 6.8)
[4] = MMP-9, 20 mM cacodylate (pH 6.8)

CC(C)[C@H](NC(=O)[C@H](CC(=O)O)NC(=O)[C@@H]1CCCN1C(=O)[C@H](CC(N)=O)NC(=O)CNC(=O)[C@H](CS)NC(=O)[C@H](CCCNC(=N)N)NC(=O)[C@@H]1CCCN1)C(=O)N[C@@H](C)C(=O)N[C@@H](CC(N)=O)C(=O)N[C@@H](Cc1ccc(O)cc1)C(=O)N[C@@H](CC(N)=O)C(=O)N[C@@H](Cc1ccccc1)C(=O)N[C@@H](Cc1ccccc1)C(=O)N1CCC[C@H]1C(=O)N[C@@H](CCCNC(=N)N)C(=O)N[C@@H](CCCCN)C(=O)N1CCC[C@H]1C(=O)N[C@@H](CCCCN)C(=O)O [Peptide 19-mer]
keratinocyte cell growth versus control ([1]; 1×10^−4 M, P<0.001): even greater cell growth | keratinocyte cell density versus control ([1]; 1×10^−5 M, P<0.01): significantly greater cell density | keratinocyte cell proliferation versus control ([1]; 1×10^−6 M, P>0.05): only a small amount of cell proliferation | Mean (fibronectin EIA, absorbance at 450 nm) ([2]; 1×10^−4 M): 0.4045 | Median (fibronectin EIA, absorbance at 450 nm) ([2]; 1×10^−4 M): 0.4045 | Mean (fibronectin EIA, absorbance at 450 nm) ([2]; 1×10^−5 M): 0.2400 | Median (fibronectin EIA, absorbance at 450 nm) ([2]; 1×10^−5 M): 0.2400 | Mean (fibronectin EIA, absorbance at 450 nm) ([2]; 1×10^−6 M): 0.1895 | Median (fibronectin EIA, absorbance at 450 nm) ([2]; 1×10^−6 M): 0.1895 | effect on fibronectin stimulation compared with control and 10^−6 M ([2]; 10^−4 M): more than doubled | amount of fibronectin versus control ([2]; all concentrations tested (1×10^−4, 1×10^−5, 1×10^−6 M)): increased the amount of fibronectin present | Stoichiometry (MMP-2; MMP-2 20 μM, 19-mer 1 mM, 20 mM cacodylate (pH 6.8)): 0.99 ± 0.03 | ΔH (MMP-2; [3]): -15.4 ± 2.05 kcal/mol | ΔS (MMP-2; [3]): −21.1 ± 1.8 cal mol^−1 K^−1 | Stoichiometry (MMP-9; MMP-9 20 μM, peptide 1 mM, 20 mM cacodylate (pH 6.8)): 0.975 ± 0.02 | ΔH (MMP-9; [4]): -26.1 ± 1.45 kcal/mol | ΔS (MMP-9; [4]): −11.6 ± 2.2 cal mol^−1 K^−1
